A word on the GI50: it is the concentration that inhibits growth by half. One may read the TGI as the concentration giving total growth inhibition. A lower TGI goes with more potent growth arrest.

The values that follow come from PubChem BioAssay (NCI).

Common to all, as to assay: DTP human tumour cell line panel, 48 h
Assay [1] relates to MDA-MB-435.
In assay [2] the test system is NCI-H226 lung.
The test system of assay [3] is A498 renal.
Assay [4] has as its system SF-539 CNS.
Assay [5] deals with OVCAR-4 ovarian.
Assay [6] has as its system NCI-H522 lung.
Assay [7] deals with SK-OV-3 ovarian.
The subject of assay [8] is DU-145 prostate.
Assay [9] deals with OVCAR-8 ovarian.
The subject of assay [10] is BT-549 breast.

Several values for one entry are separate records, joined by “and”; a condition that tells them apart may be missing. Identical values can stand only once.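 Values below derive from 48-hour exposures of cells grown in 96-well plates, with endpoints linearly interpolated between the two concentrations bracketing the appropriate inhibition level. Abbreviation: GI50, concentration required for 50% inhibition of growth. TGI is the concentration that stops growth completely.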 Where only a bound is given, the exact number is not on record here.

Regarding `Nc1nc(=S)c2[nH]cnc2[nH]1`, the GI50 in assay [1] is 0.349 µM and 0.552 µM; in assay [2] it was 0.72 µM and 6.95 µM; in assay [4], 0.483 µM and 0.606 µM and 1.41 µM; in [5] it was 0.573 µM and 4.99 µM; in assay [6], 0.418 µM and 2.07 µM and 1 µM; in assay [7] it was 0.293 µM and 0.784 µM. Besides, the GI50 is 0.477 µM and 0.538 µM in assay [8]; 0.374 µM and 0.432 µM and 0.91 µM in [9]; 0.716 µM and 1.4 µM and 1.85 µM in assay [10]. Also, the TGI was > 59.5 µM and 106 µM and 102 µM in assay [2]; > 23.8 µM and 93.7 µM and 12.6 µM in assay [3]; 68.8 µM [middle of 4 runs] in assay [4]; > 100 µM and 97.4 µM and 109 µM in [5]; 3.04 µM and 6.04 µM and 7.26 µM in [6]; 8.82 µM and 17.5 µM and > 86 µM in assay [7]. For the same compound, the TGI in assay [8] was > 32.1 µM and 144 µM and 28.7 µM.

Consider `N#CCCN(CCC#N)c1ccc(C=Nc2ccc(F)cc2)cc1`, for which the total growth inhibition concentration (TGI) in assay [1] is above 100 µM; in [2] it was above 100 µM; in assay [3], above 100 µM; in assay [4], above 83.2 µM; in assay [5], above 100 µM; in assay [6], above 100 µM. Besides, the TGI in assay [7], in assay [8], in assay [9] and in assay [10] was above 100 µM in each case.

Turning to `C=C1CC/C=C(\C)CC[C@H](C(=C)C)[C@@H](O)/C=C(/CO)CCC1O` (some centres not stated), the GI50 in assay [1] is 40.5 µM; in assay [2], above 100 µM; in [3], above 100 µM; in [4], above 100 µM; in assay [5], above 100 µM; in assay [6] it was 60.7 µM. The GI50 in assay [7] was above 100 µM; in assay [8] it was 93.2 µM; in [9], above 100 µM; in assay [10] it was 48.2 µM. In addition, the TGI in [1], in [2], in assay [3], in assay [4], in [5] and in assay [6] was above 100 µM in each case. For the same compound, the total growth inhibition concentration (TGI) in [7], in [8], in [9] and in assay [10] was above 100 µM throughout.

Turning to `Cc1nc2c(Br)cc(Br)cc2c(=O)n1-c1ccccc1NC1OCC(O)C(O)C1O` (configuration not stated), the total growth inhibition concentration (TGI) was above 100 µM in assay [1]; > 100 µM and 48.9 µM in [2]; > 100 µM and 45.6 µM in assay [3]; > 100 µM and 22.3 µM in assay [4]; above 100 µM in assay [5]; 92.4 µM and 47.1 µM in assay [6]. Also, the TGI in assay [7] is above 100 µM; in assay [8], > 100 µM and 46.3 µM; in assay [9] it was > 100 µM and 50.7 µM; in assay [10] it was above 100 µM. In addition, the GI50 in assay [2] was 42.3 µM and 16.2 µM; in assay [3], 87.2 µM and 18.3 µM; in assay [4], 48.4 µM and 7.53 µM; in assay [7], 76.3 µM and 29.9 µM; in [8] it was 44.9 µM and 19.2 µM; in assay [9] it was 30.6 µM and 14.5 µM.

For the compound `c1cncc(C2ONC3=NCCN32)c1` (configuration not stated), the GI50 in assay [1] is 50.8 µM; in assay [2] it was 20 µM; in [3], 16.6 µM; in assay [4], 28.9 µM; in [5], above 100 µM; in [6], 9.59 µM. Besides, the GI50 in assay [7] is 26.2 µM; in [8], 15.8 µM; in assay [9] it was 27.4 µM; in assay [10], 22.9 µM. Also, the total growth inhibition concentration (TGI) in [1] is above 100 µM; in assay [2] it was 68.7 µM; in assay [3], 40.2 µM; in assay [4] it was above 100 µM; in assay [5] it was above 100 µM; in assay [6] it was above 100 µM. The TGI was above 100 µM in assay [7], above 100 µM in [8], above 100 µM in assay [9] and 70 µM in assay [10].

Turning to `COc1c(O)c2c3c(c1OC)-c1ccccc1CC3N(S(=O)(=O)c1ccc(C)cc1)CC2` (configuration not stated), the GI50 in assay [1] was 1.07 µM; in [2] it was 11.4 µM; in assay [3], 0.372 µM; in assay [4] it was 1.15 µM; in assay [5], 3.7 µM; in [6], 1.28 µM. Also, the GI50 is 1.96 µM in assay [7], 1.62 µM in [8], 1.92 µM in assay [9] and 3.46 µM in [10]. For the same compound, the TGI in assay [1] was 2.92 µM; in assay [2], above 50 µM; in assay [3] it was 5.54 µM; in assay [4], 3.16 µM; in [5], above 50 µM; in assay [6], 3.55 µM. Moreover, the TGI in assay [7] was 38.4 µM; in assay [8], 6.41 µM; in assay [9] it was above 50 µM; in [10], 42.2 µM.
